The test system of one test is resting PK-15 cells. Description: Mitochondrial damage test: accelerated glucose consumption and extracellular acidosis. Format: cell-based, porcine. As to the method: The mitochondria were depolarized in sperm cells exposed to sublethal concentrations of chaetoglobosin A (Figure 5) and to the chaetoglobosin-containing extracts (Table 3). This observation aroused the suspicion regarding mitochondrial toxicity. The mitochondrial toxicity of the extracts containing chaetoglobosin was assessed by measuring the accelerated glucose consumption in resting PK-15 cells. […] By contrast, the positive controls for mitochondrial toxicity—enniatin B, moniliformin and valinomycin at sublethal concentrations of 1.5, 4 and 5 ng mL^−1, respectively—promoted the acceleration of glycolysis.
The test for mitochondrial damage as indicated by accelerated glucose consumption and extracellular acidosis was described earlier. The PK-15 cells were grown in 8-well flat-bottom chamber glass slides, seeded to a density of 4 × 10^4 cells mL^−1, in the respective medium for 48 h. The twofold serially diluted test substances or the vehicle only was dispensed into the wells. The glucose content of the wells was measured by using a glucose meter (Precision Xceed; Abbott Diabetes Care Ltd., Berkshire, United Kingdom). In wells that received nothing or the vehicle only, the glucose concentration decreased from an initial concentration (0 h) of 12 to 6 mM (24 h), but the pH remained as pH of 7.2. A glucose concentration after 24 h of ≤3 mM indicated excessive glucose consumption. Prior to the measurement of the pH, the chamber slides were transferred into ambient air for 1 h to allow CO2 to evaporate. A pH drop of 0.5 units in the toxin-exposed well compared to the vehicle only was considered proof of acidosis. Mitochondrial depolarization (ΔΨm assay) was read by a fluorescence microscope after 26 h of exposure to the toxicants from the monolayers double stained with the membrane potential-responsive fluorogenic dye JC-1 and with propidium iodide to assess the relaxing of the plasma membrane permeability barrier, similar to what was reported previously for sperm cells (27).

Test [1] relates to boar spermatozoa. Kind of test: cells. Format: cell-based. To be noted: Spermatozoa; motile boar sperm, 2 h, 37 °C; read-out: EC50 SMIDM Boar Sperm 2 h.
The test system of test [2] is resting boar spermatozoa. Description: Plasma membrane integrity of resting spermatozoa (SMIDR), calcein-AM + PI. Format: cell-based. To be noted: Spermatozoa, 48 h; resting boar sperm, 24 °C, 2 days; read-out: EC50 Lethal Toxicity SMIDR 2 days. As to the method: The long-term effects of exposure to chaetoglobosin A and to the chaetoglobosin-containing extracts of the Ch. globosum MTAV35 and MTAV37 strains were measured in resting sperm cells exposed at 24 °C for two days. Three criteria were assessed: (1) the motility inhibition of resting boar spermatozoa (BSMIR); (2) the change in mitochondrial membrane potential (ΔΨ) observed using the potentiometric dye JC-1; and (3) the plasma membrane integrity (SMIDR) observed using the viability stain calcein-AM + propidium iodide (PI). […] By contrast, the EC50 concentrations in the SMIDR assays, which measured the lethal damages in plasma membrane after incubation for two days, were >50 times higher (Figure 5 and Table 3).
(§1) The boar sperm cells exposed for 2 days to commercial chaetoglobosin A and the crude extract of MTAV35 and MTAV37 were double-stained with the viability stains PI + calcein–AM, the SMIDR assay, as described earlier. The staining protocol was as follows: 200 μL of extended boar semen containing 27 × 10^6 sperm cells mL^−1 was mixed with 200 μL PBS containing 3 μg mL^−1 calcein-AM and 10 μg mL^−1 PI. The ΔΨm assay monitored the mitochondrial membrane potential changes (ΔΨm) by staining with the lipophilic potentiometric dye JC-1 as described by Mikkola et al. (2015). For the staining with JC-1 (35 µg mL^−1), 200 µL of the sperm cells were shaken and incubated at 37 °C for 5 min. After staining, the cells exposed in the SMIDR and the ΔΨm assays were inspected with fluorescence microscope using 400× magnification (Nikon Eclipse E600, Nikon Corporation, Tokyo Japan) with filters BP 450–490 nm/LP 520. The calcein–AM-stained cells with intact plasma membranes produced green fluorescence, whereas the PI-dyed cells with damaged plasma membranes produced red fluorescence. In JC-1 stained sperm cells, mitochondria with high membrane potential emitted yellow fluorescence, whereas depolarized mitochondria fluoresced green.
(§2) The EC50 concentration in these microscopic assays was defined as the lowest concentration where the ratio of cells similar to those in the solvent control was less than 50%. This EC50 fitted between EC90 and EC10 observed in the microscope calculating ca. 100–120 sperm cells from three microscopic fields. The maximal difference between four parallel tests in each of the two methods was one dilution step. The assays were calibrated with triclosan.

Test [3] has as its system resting boar spermatozoa. Kind of test: Mitochondrial membrane potential (ΔΨm) assay with JC-1 in resting spermatozoa. The format is cell-based. As to the method:
Three criteria were assessed: (1) the motility inhibition of resting boar spermatozoa (BSMIR); (2) the change in mitochondrial membrane potential (ΔΨ) observed using the potentiometric dye JC-1; and (3) the plasma membrane integrity (SMIDR) observed using the viability stain calcein-AM + propidium iodide (PI). […] By contrast, the EC50 concentrations in the SMIDR assays, which measured the lethal damages in plasma membrane after incubation for two days, were >50 times higher (Figure 5 and Table 3).
as §1, §2

The subject of test [4] is boar spermatozoa. Description: cells. Format: cell-based. The following applies: Spermatozoa, 20 min; motile boar sperm, 20 min, 37 °C; read-out: EC50 BSMIM Boar Sperm 20 min.

Broadly, the EC50 is the midpoint of the concentration-response curve.

Structures are written as SMILES. In brackets after ≈: the same amount, converted by molar mass. Where two headings read alike, the source gives them in different places.

Turning to `C/C1=C\[C@@H](C)C/C=C/[C@H]2[C@@H]3O[C@]3(C)[C@@H](C)[C@H]3[C@H](Cc4c[nH]c5ccccc45)NC(=O)[C@]32C(=O)/C=C/C(=O)[C@@H]1O` [Chaetoglobosin A, chaetoglobosin A], in the test on resting PK-15 cells (PK-15, 1 day), the “EC50 Sublethal Toxicity Acceleration of glycolysis 1 day” value was “None”. The “EC50 Sublethal Toxicity Acidosis 2 days” value with resting PK-15 cells (PK-15, 2 days) is reported as “None”. For the same molecule, the EC50 in the test on boar spermatozoa [1] is 12 µg/mL (≈ 22.7 µM); in the test on resting boar spermatozoa [3] (Spermatozoa, 48 h, read-out: EC50 Sublethal Toxicity Depletion of ΔΨm 2 days, resting boar sperm, JC-1, 2 days) it was 3 to 4 µg/mL (≈ 5.67 to 7.57 µM); with boar spermatozoa [4] it was 1 µg/mL (≈ 1.89 µM). The CC50 in the test on resting boar spermatozoa [2] was above 20 µg/mL. Also, the “EC50 Sublethal Toxicity Depletion of ΔΨm 2 days” value with resting boar spermatozoa [3] (resting boar sperm, JC-1, 2 days) worked out at 2 µg/mL.

The record behind these values is article PMC7405012, “Detection of Chaetomium globosum, Ch. cochliodes and Ch. rectangulare during the Diversity Tracking of Mycotoxin-Producing Chaetomium-like Isolates Obtained in Buildings in Finland” (Toxins, 2020).
